Tested on: Chung model (spinal nerve ligation rats)
Assay: Tactile allodynia test after spinal nerve ligation (SNL, Chung model)
Type: in vivo, rat
Settings: 3, 10 and 30 mg/kg po in saline, administered 1 hour prior to the tactile allodynic test
From the text: SNL surgery: For spinal nerve ligation surgery, rats were anesthetized with isoflurane gas. […] The hair at the surgical site was clipped and disinfected with alcohol and betadine. Body temperature was maintained during surgery by using a heating pad. A skin incision (approximately 3 cm) was made on the dorsal midline, using the level of the iliac crests as the midpoint of the incision. At the mid-sacral region, on the left side of the vertebral column (in the sagittal plane), a #15 scalpel blade was used to cut the muscles close to the vertebral body until the blade hits the sacrum bone. A retractor system was used to expose the area from the sacro-iliac rim to about 2 cm of the lateral vertebral column. Using rongeurs, the facet joint was removed followed by the L6 transverse process. A glass hook was used to isolate and tightly ligate L5 and L6 with 6-0 silk suture. The muscle was then sutured using 4-0 silk suture. The skin was closed using wound clips.
Tactile allodynia test: The rats were placed on testing stands with screens under their feet. von Frey filaments eliciting various forces (up to 15 g) were applied to the paws, starting with a filament of 4.31 g and proceeding with alternating lighter and heavier filaments. The measured variable is the 50% withdrawal threshold (PWT) and is calculated from the up-down formula in Chaplan et al. 1994.

CCOc1ncccc1C1(NC(=O)N2CCN(C3CCN(C)CC3)CC2)C(=O)N(S(=O)(=O)c2ccc(OC)cc2OC)c2ccc(Cl)cc21 (stereo not shown) [compound 1]
50% paw withdrawal threshold (PWT): dose-dependently increased the withdrawal threshold

— patent US20110059983A1, “USE OF SUBSTITUTED OXINDOLE DERIVATIVES FOR THE TREATMENT AND PROPHYLAXIS OF PAIN” (Abbott GmbH & Co. KG, priority 2009, published 2011)
